In US20040171692A1, “Modulation of bone formation” (priority 2003, published 2004):
Entries after “also recorded” stand apart in the source; their conditions may differ.

Tests used:
[1] = system: bone forming cells (whole bone marrow cells, NASP cells, neonatal rat calvariae); experiment: CFU-f and NASP cell assays in combination with neonatal rat calvarial organ cultures (bone anabolic activity); format: cell-based; conditions: for bone anabolic activity: useful = equivalent activity to that of PGE2, FIGS. 4-7
From the text: The main reason for the lack of understanding of the cellular basis for the actions of bone anabolic drugs is that there exists, at present, no single in vitro assay which responds to these drugs in an appropriate manner. However, we have now developed a number of assays which, when used in combination with neonatal rat calvarial organ cultures, are able to predict bone anabolic agents.
Whole bone marrow cells (BMC's) were obtained from the tibias and femurs of 125 g male Wistar rats. The bones were removed under aseptic conditions and all soft adherent tissue removed. An end of each bone was removed, a hole made in the opposing end with an 18 gauge syringe needle, and the cells isolated centrifugally [Dobson K. R., et al., Calcif. tissue Int., 65:411-413 (1999)]. The cells were dispersed in 10 ml DMEM (containing 12% FCS, 1×10^−8 M dexamethasone and […] ascorbic acid) by repeated pipetting, and a single-cell suspension achieved by forcefully expelling the cells through a 20 gauge syringe needle. The cells were then used in the protocols described below.
To analyse the numbers of fibroblastic-colony forming units (CFU-f) in either whole BMC or high density non-adherent stromal precursor (NASP) cell cultures, 10^6 nucleated BMC, or the non-adherent cells from the high density NASP cell cultures, were plated out on 55 cm^2 petri dishes in DMEM containing; 12% FCS, 1×10^−8 M dexamethasone and 50 μg/ml ascorbic acid. In the case of the CFU-f analysis of whole BMC, the test agents were added once at the beginning of the culture period. In the case of NASP cell cultures, the test agents were added at the beginning of the NASP cell cultures themselves and the CFU-f assay only used to assess the number of CFU-f generated during the NASP cell culture. The medium was changed after 5 days and, thereafter, twice weekly. The cultures were maintained for 18 days, after which the cells were washed with PBS and fixed, by the addition of cold ethanol.
After fixation, the cultures were stained for alkaline phosphatase (APase) positive, calcium positive, collagen positive and total colonies as described by Scutt & Bertram (J. Bone and Mineral Res. 10:474-489, 1995). The cultures were then photographed using a digital camera and the APase positive, calcium positive, collagen positive and total colonies quantitated using Bioimage “Intelligent Quantifier” image analysis software [Dobson K., et al., A cost effective method for the automatic quantitative analysis of fibroblastic-colony forming units with osteoblastic potential. Calcif. Tissue Int. 65:166-172 (1999)].
BMC were cultured at a density of 1.5×10^6 cells per 2 cm^2 well in 0.75 ml DMEM containing 12% FCS, 10^−8 M dexamethasone and 50 μg/ml ascorbic acid. Solutions of the agents to be tested were added to the wells and then cultured for 4 days. The numbers of NASP cells present in the supernatant were then quantitated as described above for CFU-f cultures. To do this, the cultures were gently agitated and the supernatants, containing the non-adherent cells, were transferred to 55 cm^2 petri dishes. 10 ml of DMEM containing 12% FCS, 1×10^−8 M dexamethasone, 50 μg/ml ascorbic acid was added and the cultures maintained further as described above for CFU-f cultures.
One day old rat pups were killed and the calvariae (skull cases) dissected out. The calvariae were then cut along the sagittal suture to give two hemicalvariae per foetus. Each bone was cultured in 2 ml DMEM containing 1 mg/ml BSA, 50 μg/ml ascorbic acid, 60 μg/ml penicillin, and 50 μg/ml streptomycin and 1×10^−8 M dexamethasone in 35 mm tissue culture wells. After 24 h, the medium was replaced with fresh medium, any test agent added, and the tissue cultured for a further 48 h.
In this assay, each bone was pulsed with 10 μCi of [^3H]proline for 24 h at the end of the culture period. The bones were washed successively in trichloroacetic acid (TCA), acetone, and ether, and then dried. […]

whole bone marrow cells = experiment: Fibroblastic colony forming unit (CFU-f) cultures, colony numbers; format: cell-based, rat
Method: Whole bone marrow cells (BMC's) were obtained from the tibias and femurs of 125 g male Wistar rats. The bones were removed under aseptic conditions and all soft adherent tissue removed. An end of each bone was removed, a hole made in the opposing end with an 18 gauge syringe needle, and the cells isolated centrifugally [Dobson K. R., et al., Calcif. tissue Int., 65:411-413 (1999)]. The cells were dispersed in 10 ml DMEM (containing 12% FCS, 1×10^−8 M dexamethasone and […] ascorbic acid) by repeated pipetting, and a single-cell suspension achieved by forcefully expelling the cells through a 20 gauge syringe needle. The cells were then used in the protocols described below. To analyse the numbers of fibroblastic-colony forming units (CFU-f) in either whole BMC or high density non-adherent stromal precursor (NASP) cell cultures, 10^6 nucleated BMC, or the non-adherent cells from the high density NASP cell cultures, were plated out on 55 cm^2 petri dishes in DMEM containing; 12% FCS, 1×10^−8 M dexamethasone and 50 μg/ml ascorbic acid. In the case of the CFU-f analysis of whole BMC, the test agents were added once at the beginning of the culture period. In the case of NASP cell cultures, the test agents were added at the beginning of the NASP cell cultures themselves and the CFU-f assay only used to assess the number of CFU-f generated during the NASP cell culture. The medium was changed after 5 days and, thereafter, twice weekly. The cultures were maintained for 18 days, after which the cells were washed with PBS and fixed, by the addition of cold ethanol. […] The cultures were then photographed using a digital camera and the APase positive, calcium positive, collagen positive and total colonies quantitated using Bioimage “Intelligent Quantifier” image analysis software [Dobson K., et al., A cost effective method for the automatic quantitative analysis of fibroblastic-colony forming units with osteoblastic potential. […]

MB-1.8 cells = MB-1.8 cells exposed to TZD; cited from earlier work

Compound | bone anabolic activity [1] | colony numbers (whole bone marrow cells) | further results
CCCCC/C=C\C/C=C\CCCCCCCC(=O)O [Linoleic acid, linoleic acid] | showed bone anabolic activity | – | –
CCCCCCCCCCCCCCCC(=O)OC [Methyl palmitate, methyl palmitate] | – | stimulation | –
CCCCC[C@H](O)/C=C/[C@H]1C=CC(=O)[C@@H]1CCCCCCC(=O)O [PGA1] | – | significant dose dependent increase | response in all three assays ([1]; alkaline phosphatase activity, calcium uptake and collagen synthesis, FIG. 1): positive response; bone anabolic activity relative to PGE2 ([1]; compared with PGE2, FIGS. 1-3): comparable with that produced by PGE2; also recorded: at least as good as that of PGE2
CCCCC[C@H](O)/C=C/[C@H]1C=CC(=O)[C@@H]1C/C=C\CCCC(=O)O [PGA2] | useful activity | – | –
CN(CCOc1ccc(CC2SC(=O)NC2=O)cc1)c1ccccn1 (centres unmarked) [TZD, 5-(4-{[N-methyl-N(2-pyridyl)-amino]ethoxy}benzyl)thiazolidine-2,4-dione] | – | – | alkaline phosphatase activity and expression of osteoblast-associated genes (MB-1.8 cells): decrease; expression of adipocyte fatty acid protein (MB-1.8 cells): enhancing
CC#CCC(C)[C@H](O)/C=C/[C@@H]1[C@H]2C/C(=C/CCCC(=O)O)C[C@H]2C[C@H]1O (some centres unmarked) [iloprost] | – | stimulation comparable with that of PGA1 | –
CCCCCCCC/C=C\CCCCCCCC(=O)O [oleic acid] | useful activity | – | –
c1cc2c(cc1[C@H]1OC[C@H]3[C@@H]1CO[C@@H]3c1ccc3c(c1)OCO3)OCO2 [sesamin] | useful activity | – | –
